Test results as given in US20250144067A1, “PERSONALIZED STARVATION THERAPY FOR CANCER” (Faeth Therapeutics, Inc., priority 2021, published 2025).
Where a name gives a salt, the structure may show the parent alone. Read-outs that look alike come from different tables or passages of the source.

Columns and labels:
[1] = test system: NCI-H292 lung cancer cells; assay: FDA drug screening, complete media vs cholesterol-free media with simvastatin (TABLE 2); format: cell-based, human
[2] = test system: NCI-H292 lung cancer cells; assay: FDA drug screening, complete media vs cholesterol-free media without statin (TABLE 1); format: cell-based, human
[3] = NCI-H292 cells, cholesterol-free media without statin, FDA drug library screen
[4] = NCI-H292 cells, complete media, FDA drug library screen
[5] = NCI-H292 cells, cholesterol-free media with simvastatin 0.04 μM, cell growth value in FDA drug screen
[6] = NCI-H292 cells, complete media, cell growth value in FDA drug screen
[7] = complete media minus cholesterol-free media + simvastatin, >0 enhanced anti-cancer activity, about 0 neutral, <0 antagonist
[8] = Complete minus Cholesterol-free, >0 enhanced anti-cancer activity, about 0 neutral, <0 antagonist
[9] = NCI-H292 cells, cholesterol-free media without statin
[10] = NCI-H292 cells, FDA library drug in complete media
[11] = complete media vs cholesterol-free media + simvastatin (0.04 μM), >0 enhanced anti-cancer activity, about 0 neutral, <0 antagonist
[12] = NCI-H292 cells, FDA drug library screen, cholesterol-free media with simvastatin 0.04 μM
[13] = NCI-H292 cells, FDA drug library screen, complete media
[14] = Complete minus Cholesterol-free, greater than 0 enhanced anti-cancer activity, about 0 neutral, below 0 antagonist
[15] = NCI-H292 cells, FDA drug library screen, cholesterol-free media without statin
[16] = NCI-H292 cells in cholesterol-free media without statin
[17] = NCI-H292 cells in complete media
[18] = Complete minus Cholesterol-free, greater than 0 enhanced anti-cancer activity, about 0 neutral, below 0 antagonists

## COC1=C[C@@H]2[C@@H]3Cc4ccc(OC)c(O)c4[C@]2(CCN3C)CC1=O [Sinomenine hydrochloride]
[1]; NCI-H292 cells, drug in cholesterol-free media with simvastatin 0.04 μM
  Cholesterol-free media + simvastatin (0.04 μM): 1.006
[1]; NCI-H292 cells, drug in complete media
  Complete Media: 0.7844
[1]; complete media vs cholesterol-free media + simvastatin (0.04 μM), […]
  Difference: −0.22
[2]; [3]
  Cholesterol-free: 1.217
[2]; [4]
  Complete: 1.524
[2]; complete vs cholesterol-free media, […]
  Difference: 0.31

## O=c1c(-c2ccc(O)cc2)coc2c([C@@H]3O[C@H](CO)[C@@H](O)[C@H](O)[C@H]3O)c(O)ccc12 [Puerarin]
[1]; [5]
  Cholesterol-free media + simvastatin (0.04 μM): 0.9456
[1]; [6]
  Complete Media: 1.081
[1]; [7]
  Difference: 0.14
[2]; [8]
  Difference: −0.27
[2]; [9]
  Cholesterol-free: 1.203
[2]; NCI-H292 cells, complete media
  Complete: 0.9306

## O=C1CCC[C@@H]2[C@H]3CCC[N+]4([O-])CCC[C@@H](CN12)[C@@H]34 (some centres unmarked) [Oxymatrine]
[1]; NCI-H292 cells, FDA library drug in cholesterol-free media with simvastatin 0.04 μM
  Cholesterol-free media + simvastatin (0.04 μM): 1.185
[1]; [10]
  Complete Media: 0.9014
[1]; [11]
  Difference: −0.28
[2]; [8]
  Difference: 0.05
[2]; [3]
  Cholesterol-free: 0.9493
[2]; [4]
  Complete: 0.9958

## O=S(=O)(c1cccc2cnccc12)N1CCCNCC1 [Fasudil (Hydrochloride)]
[1]; [12]
  Cholesterol-free media + simvastatin (0.04 μM): 0.9921
[1]; [13]
  Complete Media: 1.233
[1]; [7]
  Difference: 0.24
[2]; [14]
  Difference: −0.12
[2]; [15]
  Cholesterol-free: 1.121
[2]; [13]
  Complete: 1

## CN(C)CCOC(c1ccccc1)c1ccccc1 [Diphenhydramine (hydrochloride)]
[1]; [12]
  Cholesterol-free media + simvastatin (0.04 μM): 0.5789
[1]; [13]
  Complete Media: 0.7429
[1]; [7]
  Difference: 0.16
[2]; [8]
  Difference: −0.19
[2]; [9]
  Cholesterol-free: 1.083
[2]; NCI-H292 cells, complete media
  Complete: 0.8936

## O.O.O.O.O=P([O-])(O)C(Cl)(Cl)P(=O)([O-])O.[Na+].[Na+] [Clodronate (disodium tetrahydrate)]
[1]; [5]
  Cholesterol-free media + simvastatin (0.04 μM): 0.8439
[1]; [6]
  Complete Media: 0.9326
[1]; [7]
  Difference: 0.09
[2]; [8]
  Difference: −0.05
[2]; [3]
  Cholesterol-free: 1.08
[2]; [4]
  Complete: 1.034

## CCCOc1ccc2c(c1)CC[C@@H]1[C@@H]2CC[C@]2(C)[C@@H](OC)CC[C@@H]12 [Promestriene]
[1]; NCI-H292 cells, cholesterol-free media with simvastatin 0.04 μM, […]
  Cholesterol-free media + simvastatin (0.04 μM): 0.8092
[1]; NCI-H292 cells, complete media, […]
  Complete Media: 0.9277
[1]; complete media minus cholesterol-free media + simvastatin, […]
  Difference: 0.12
[2]; Complete minus Cholesterol-free, […]
  Difference: −0.77
[2]; [16]
  Cholesterol-free: 1.741
[2]; [17]
  Complete: 0.9695

## (−)-Limonene
[1]; [13]
  Complete Media: 1.422
[1]; [7]
  Difference: 0.38
[2]; [3]
  Cholesterol-free: 1.299
[2]; [4]
  Complete: 1.515
[2]; complete vs cholesterol-free media, >0 enhanced anti-cancer activity, about 0 neutral, <0 antagonist
  Difference: 0.22

## Cc1ncc([N+](=O)[O-])n1CCOC(=O)c1ccccc1 [Metronidazole Benzoate]
[1]; [12]
  Cholesterol-free media + simvastatin (0.04 μM): 1.104
[1]; [13]
  Complete Media: 1
[1]; [11]
  Difference: −0.10
[2]; [8]
  Difference: −0.30
[2]; [9]
  Cholesterol-free: 1.298
[2]; NCI-H292 cells, complete media
  Complete: 1.001

## CCN(CC)CCOC(=O)C(c1ccccc1)C1CCCCC1 (centres unmarked) [Drofenine (hydrochloride)]
[1]; [5]
  Cholesterol-free media + simvastatin (0.04 μM): 1.111
[1]; [6]
  Complete Media: 1.144
[1]; [7]
  Difference: 0.03
[2]; [18]
  Difference: −0.55
[2]; [16]
  Cholesterol-free: 1.437
[2]; [17]
  Complete: 0.8908

## OC[C@H]1O[C@@H](O[C@H]2[C@H](O)[C@@H](O)[C@@H](O)O[C@@H]2CO)[C@H](O)[C@@H](O)[C@H]1O [Lactose]
[1]; [10]
  Complete Media: 0.9497
[1]; [11]
  Difference: −0.28
[2]; [18]
  Difference: −0.48
[2]; [17]
  Complete: 0.6552

## Nc1ccn([C@@H]2O[C@H](CO)[C@@H](O)[C@@H]2O)c(=O)n1 [Cytarabine (hydrochloride)]
[1]; NCI-H292 cells, cholesterol-free media with simvastatin 0.04 μM, FDA drug library screen (TABLE 2)
  Cholesterol-free media + simvastatin (0.04 μM): 0.3553
[1]; NCI-H292 cells, complete media, FDA drug library screen (TABLE 2)
  Complete Media: 0.3011
[1]; complete media minus cholesterol-free media + simvastatin (0.04 μM), >0 enhanced anti-cancer activity, about 0 neutral, <0 antagonist
  Difference: −0.05
[2]; [14]
  Difference: −0.08
[2]; [15]
  Cholesterol-free: 0.1883
[2]; [13]
  Complete: 0.1064

## Nc1nc2[nH]cc(CCc3ccc(C(=O)N[C@@H](CCC(=O)O)C(=O)O)cc3)c2c(=O)[nH]1 [Pemetrexed (disodium)]
[1]; [5]
  Cholesterol-free media + simvastatin (0.04 μM): 0.1199
[1]; [6]
  Complete Media: 0.1499
[1]; [7]
  Difference: 0.03
[2]; [8]
  Difference: −0.19
[2]; [9]
  Cholesterol-free: 0.3169
[2]; NCI-H292 cells, complete media
  Complete: 0.1251

## Estramustine (phosphate sodium)
[1]
  Cholesterol-free media + simvastatin (0.04 μM): 1.251
  Difference: −0.18
[2]
  Cholesterol-free: 1.196
  Complete: 0.9487
  Difference: −0.25
